Experimental data published in US8003595B2, “Amino acid sequences facilitating penetration of a substance of interest into cells and/or cell nuclei” (Cellectis, priority 2000, dated 2011).
pKd: −log10 of the molar value. Like-named read-outs stand apart in the source and are kept apart here. Where no end group is shown, it is not given here. [ ]: non-standard residue; d: D form.

Assays:
H1299 cells = assay: Internalization of covalent peptide-peroxidase conjugates; type: cell-based, human; details: for Internalization of Peptide-peroxidase: H1299, 0.2 μg/ml conjugate; for Internalization of Peptide-peroxidase / quantity of peptide internalized: 2 hours
Procedure: (§1) To evaluate more directly the penetration of the peptides, avoiding the avidin-peroxidase bias, some of the peptides in sequences SEQ ID NO: 25 to 48 were conjugated covalently with cysteine in the C-terminal position of the peptide to peroxidase. The peptides were coupled with peroxidase in the following way:
(§2) One mg of peroxidase activated with maleimide (Sigma) in 100 μl of sodium phosphate buffer, NaCl 0.15 M, EDTA 5 mM, had 1 mg of peptide added to it. After 2 hours at laboratory temperature, β-mercaptoethanol is added to a final concentration of 1.5 mM for 15 minutes. The uncoupled peptide is eliminated by centrifugation on ultrafiltration membranes (cut-off threshold=30,000 Daltons, Sartorius), followed by three washings in sodium phosphate buffer 0.1 M, pH 7.4 containing 0.15 M NaCl.
The H1299 cells are incubated for 2 hours with the conjugates at increasing concentrations of peptide-peroxidase in the culture medium, then washed with PBS. The cells are lysed and the quantity of peptide internalized is evaluated by the dosage of peroxidase in the lysate of the cells with reference to a curve established with peptide-peroxidase.
The quantity of peptide internalized (pg/10^3 cells), depending on the concentrations of conjugates in the culture medium, is shown in Table 8 below.
(§3) It appears that the higher the concentration of peptide-peroxidase conjugate in the culture medium, the more the quantity internalized increases. To compare the penetration of the conjugates by cell type, the cells from different lines were incubated with 0.2 μg/ml of peptide-peroxidase conjugate for 2 hours, and the quantity of peroxidase dosed in the lysates. Table 9 and Table 9B below give the results expressed in pg/10^3 cells. The quantity of each peptide internalized in the different lines generally varies only from single to double.

HeLa = assay: as above; type: cell-based, human; details: 2 hours
Procedure: as §1, §2, §3

3T3 = assay: as above; type: cell-based, mouse; details: 2 hours
Procedure: as §1, §2, §3

3T3 cells = assay: In vitro transfection with luciferase plasmid using peptides; type: cell-based, mouse; details: for luciferase expression RLU: peptide and plasmid pCMVLUC complexed at 1.6 nmoles/μg
Procedure: Technique: The plasmid pCMVLUC (carrying the gene for luciferase) provided by Qiagen is used according to their instructions. 3T3 cells are sown the night before in 24-well plates (8×10^4 cells/well) in the complete culture medium.
The peptides and the plasmid are complexed in a ratio of 1.6 nmoles/μg in 50 μl of NaCl 0.15M for 20 minutes at laboratory temperature. The cells are then washed, and the peptide-plasmid complex added to the cells in 0.5 ml of complete medium. After 5 hours of incubation at 37° C., the reaction medium is eliminated, and 1 ml of complete medium is added to the cells. After 24 hours of culture, the cells are then washed 3 times with PBS and lysed with 100 μl of lysis buffer (Promega) containing 1% Triton X-100 and 2 mM DTT for 15 minutes. The luciferase test is done on the cell lysate after centrifugation. The quantity of protein in the lysate is measured using the Bradford Test (Bio-Rad) and calculated according to a curve established with bovine gamma globulins. The luciferase activity is estimated on 15 μl of lysate plus 100 μl of reagent of luciferase containing luciferin (Promega). The relative luciferase units (RLU) are measured in a luminometer (Berthold Systems) and reported in mg of protein.

cells = assay: Penetration of biotinylated peptides inside cells (microscopy, S-PO coloration); type: cell-based; details: biotinylated peptides 50 to 6 μg/ml, 1-18 hours, revealed with S-PO
Procedure: The cells are cultivated in the presence of the different peptides carrying, on the N-terminal side, biotin in decreasing concentrations (50 to 6 μg/ml) in the culture medium for variable times (1-18 hours).
At the end of the culture, the cells are washed three times with PBS (0.15 M NaCl buffered with 0.01 M potassium phosphate buffer pH 7.4) then fixed 15 minutes in ethanol at −20° C. The penetration of the peptide is evaluated after incubation for 30 minutes with streptavidin conjugated with peroxidase (abbreviated S-PO for streptavidin-peroxidase). Then, the S-PO is eliminated, and the cells are washed. […] With the other peptides, positive colorations, but of variable intensity, were noted.

[1] = ELISA fixation of biotinylated peptides on sensitized plates; type: binding; details: read-out: avidity (Kd), quantity of peptides necessary to obtain 50% fixation, Heparin; Table 5
Procedure: The capacity of peptides SEQ ID NO: 1 to 21 to attach themselves to DNA and heparin is evaluated on ELISA plates sensitized with DNA or heparin. Dilutions of biotinylated peptides are deposited on the plates and their fixation is shown using streptavidin conjugated with peroxidase. […] The avidity of each of the peptides for DNA or heparin is evaluated by the quantity (×10^−6 M) of peptides necessary to obtain 50% fixation.

[2] = as above; type: binding; details: read-out: avidity (Kd), quantity of peptides necessary to obtain 50% fixation, Chondroitin A; Table 5
[3] = as above; type: binding; details: read-out: avidity (Kd), quantity of peptides necessary to obtain 50% fixation, Chondroitin C; Table 5
[4] = as above; type: binding; details: read-out: avidity (Kd), quantity of peptides necessary to obtain 50% fixation, Chondroitin B; Table 5

SEQ ID NO: 27: SEQ ID NO: 26 in which the amino acids are in configuration D ([dS][dE][dR][dK][dK][dR][dR][dR][dE][dS][dR][dK][dK][dR][dR][dR][dE][dS]; listed as Homo sapiens)
Internalization of Peptide-peroxidase (H1299 cells; Table 9B): 59.1 pg/10^3 cells
Internalization of Peptide-peroxidase (HeLa; Table 9B, 0.2 μg/ml conjugate): 4.1 pg/10^3 cells
Internalization of Peptide-peroxidase (3T3; Table 9B, 0.2 μg/ml conjugate): 63.7 pg/10^3 cells

SEQ ID NO: 31: homolog of SEQ ID NO: 30 with amino acid sequence in the reverse position (b233 says SEQ ID NO: 12) (PDRKKGLKGKKKRKKG; (1)..(16) The amino acids are in front-back position; listed as Homo sapiens)
Internalization of Peptide-peroxidase (H1299 cells; Table 9B): 70.6 pg/10^3 cells
Internalization of Peptide-peroxidase (HeLa; Table 9B, 0.2 μg/ml conjugate): 8.7 pg/10^3 cells
Internalization of Peptide-peroxidase (3T3; Table 9B, 0.2 μg/ml conjugate): 75.9 pg/10^3 cells

SEQ ID NO: 32: SEQ ID NO: 30 in which the amino acids are in configuration D (G[dK][dR][dK][dK][dK]G[dK][dL]G[dK][dK][dR][dD]; listed as Homo sapiens)
Internalization of Peptide-peroxidase (H1299 cells; Table 9B): 56.7 pg/10^3 cells
Internalization of Peptide-peroxidase (HeLa; Table 9B, 0.2 μg/ml conjugate): 7.7 pg/10^3 cells
Internalization of Peptide-peroxidase (3T3; Table 9B, 0.2 μg/ml conjugate): 50 pg/10^3 cells

SEQ ID NO: 40: SEQ ID NO: 10 (1047) plus 13 N-terminal lysines (KKKKKKKKKKKKKVKRGLKLRHVRPRVTRMDV; listed as Homo sapiens)
RLU value relative to peptide SEQ ID NO: 41 (3T3 cells; 3T3 cells): 2.6 times
luciferase expression RLU (3T3 cells): 1.9 × 10^6/mg of protein

SEQ ID NO: 41: SEQ ID NO: 28 (HBP3)2) plus 13 N-terminal lysines (KKKKKKKKKKKKKSERKKRRRESRKKRRRES; listed as Homo sapiens)
luciferase expression RLU (3T3 cells): 0.9 × 10^6/mg of protein

VKRGLKLRHVRPRVTRMDV (listed as Homo sapiens) [SEQ ID NO: 10]
Internalization of Peptide-peroxidase (H1299 cells; Table 9): 10 pg/10^3 cells
Internalization of Peptide-peroxidase (HeLa; Table 9, 0.2 μg/ml conjugate): 4.7 pg/10^3 cells
intracellular cytochemical coloration (cells): intense coloration
Internalization of Peptide-peroxidase (3T3; Table 9, 0.2 μg/ml conjugate): 35 pg/10^3 cells

YRSRKYSSWYYALKR [SEQ ID NO: 34]
percentage of quantity of peroxidase internalized compared to quantity deposited (H1299 cells; 0.01 μg/ml): (0.01) %
percentage of quantity of peroxidase internalized compared to quantity deposited (H1299 cells; 0.1 μg/ml): (1.4) %
percentage of quantity of peroxidase internalized compared to quantity deposited (H1299 cells; 0.5 μg/ml): (8.14) %
percentage of quantity of peroxidase internalized compared to quantity deposited (H1299 cells; 1 μg/ml): (10.9) %
Internalization of Peptide-peroxidase (H1299 cells; Table 9): 3.8 pg/10^3 cells
quantity of peptide internalized (H1299 cells; peptide-peroxidase 0.01 μg/ml): 0.002 pg/10^3 cells
quantity of peptide internalized (H1299 cells; peptide-peroxidase 0.1 μg/ml): 1.4 pg/10^3 cells
quantity of peptide internalized (H1299 cells; peptide-peroxidase 0.5 μg/ml): 40.7 pg/10^3 cells
quantity of peptide internalized (H1299 cells; peptide-peroxidase 1 μg/ml): 109 pg/10^3 cells
Internalization of Peptide-peroxidase (HeLa; Table 9, 0.2 μg/ml conjugate): 3.4 pg/10^3 cells
pKd [1]: 7.35
pKd [2]: 7.33
pKd [3]: 7.60
pKd [4]: 7.33
Internalization of Peptide-peroxidase (3T3; Table 9, 0.2 μg/ml conjugate): 9 pg/10^3 cells
